Laboratory results as given in patent US4386211A, “Anti-ulcer urea compounds” (G. D. Searle & Co., priority 1981, dated 1983).

Legend:
[1] = tested on: gastric acid secretion; details: in vivo; cited from earlier work
[2] = target: H-2 receptors (Rattus norvegicus, UniProt P25102); experiment: Rat uterus assay: reversal of histamine inhibition of electrically induced contractions; details: isolated rat uterine smooth muscle; dose ratios of 2 or more indicate activity
Procedure: Histamine reduces contractions induced by electrical stimulation of the isolated rat uterine smooth muscle, and histamine H-2 antagonists reverse this inhibition. The dose ratio for a specific concentration of test compound is determined by an assay procedure that compares the inhibitory effect of two concentrations of histamine in the presence of the test compound to the inhibitory effect of two concentrations of histamine in the absence of the test compound. The dose ratio is defined as the ratio of the concentration of histamine in the presence of the test compound to the concentration of histamine in the absence of the test compound where both concentrations produce the same inhibition of the electrical response. Dose ratios of 2 or more indicate activity. Compounds that are active at 40 ug/ml will be tested against isoproterenol at the same concentration in a similar test. Compound concentrations that are active against histamine but not against isoproterenol will be classified as specific H-2 antagonists.
The same type of receptors H-2 are involved in inhibition of contractions of the rat uterus and stimulation of gastric acid secretion. The rat uterus is therefore used as a model upon which to test for histamine H-2 antagonists that may be effective in treating peptic ulcers.

[3] = tested on: ulcer formation; details: in vivo; cited from earlier work
[4] = tested on: H2 receptor; experiment: Lipolysis assay: histamine-stimulated lipolysis in isolated fat cells; assay type: cell-based; details: isolated dog fat cells, histamine 2×10^-6 M; active = 50 percent or more inhibition
Procedure: Isolated fat cells of dogs are prepared from adipose tissue. Cells are incubated in the presence or absence of histamine at 2×10^-6 M. Additional flasks contain the compound to be tested, plus histamine. At the end of the incubation the cell cultures are analyzed for glycerol content, and results are converted into a lipolysis rate. The stimulation of lipolysis attributed to histamine (D) is the difference between the rate observed in its presence and absence:
These figures are then converted to a percent inhibition by the formula:
Percent inhibition=(D-E)/D×100

[5] = humans; cited from earlier work

Chain of H-2 receptors (P25102 whole entry): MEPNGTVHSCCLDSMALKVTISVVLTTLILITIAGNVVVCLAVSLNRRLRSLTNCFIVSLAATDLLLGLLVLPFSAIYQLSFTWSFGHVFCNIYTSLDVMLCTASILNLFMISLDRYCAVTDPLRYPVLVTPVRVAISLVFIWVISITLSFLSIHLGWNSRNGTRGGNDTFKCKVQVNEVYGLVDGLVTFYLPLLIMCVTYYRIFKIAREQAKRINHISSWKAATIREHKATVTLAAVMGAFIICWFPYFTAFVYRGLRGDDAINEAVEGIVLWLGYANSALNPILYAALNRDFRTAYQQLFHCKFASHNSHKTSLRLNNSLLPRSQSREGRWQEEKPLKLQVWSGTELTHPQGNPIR

CNC(=S)NCCCCc1cnc[nH]1 [burimamide]
gastric acid secretion [1]: inhibit
activity in rat uterus assay [2]: active
ulcer formation [3]: inhibit

CN/C(=N/CCSCc1nc[nH]c1C)NC#N [cimetidine]
classification in lipolysis assay (active against histamine but not norepinephrine = specific) [4]: specific inhibitors
gastric acid secretion [1]: inhibit
activity in rat uterus assay [2]: active
severe toxic symptoms [5]: no severe toxic symptoms
untoward effects observed [5]: gynecomastia, elevated SGOT, SGPT and creatine, and increases in serum gastrin
ulcer formation [3]: inhibit

C/N=C(\S)NCCSCc1[nH]cnc1C [metiamide]
classification in lipolysis assay (active against histamine but not norepinephrine = specific) [4]: specific inhibitors
gastric acid secretion [1]: inhibit
activity in rat uterus assay [2]: active
ulcer formation [3]: inhibit
